Measured values published in article PMC5640644, “HDX reveals the conformational dynamics of DNA sequence specific VDR co-activator interactions” (Nature Communications, 2017).
Like-named read-outs stand apart in the source and are kept apart here.

How the values were obtained:
BGLAP = BGLAP gene activation assay (BGLAP mRNA, QuantiGene 2.0) in MG-63 cells; format: cell-based, human; settings: MG-63 cells; for EC50: 24 h, average of replicate runs, read-out: EC50, BGLAP activation; for Max. Stim., BGLAP activation: fold change over DMSO normalized to 1,25D3 = 100%
Description: Human osteosarcoma cells MG-63, (CRL-1427, American Type Culture Collection (ATCC), Manassas, VA), were maintained in EMEM (ATCC 30–2003) + 10% FBS in 5% CO2. For bone gamma-carboxyglutamate protein (BGLAP) expression analysis MG-63 cells, suspended in EMEM (ATCC 30–2003) + 5% charcoal dextran treated FBS, were seeded onto 96-well tissue culture treated plates at 25,000 cells per well. After an overnight incubation the medium was removed and serial dilutions of VDRMs in concentrations ranging from 10 μM to 2 nM in EMEM (ATCC 30–2003) + 5% charcoal dextran treated FBS were added. Following a 24 h incubation the medium was removed and the plates were sealed and stored at −80 °C for later processing. QuantiGene 2.0 Assay Kit (Affymetrix QS0009) was used to quantitate BGLAP and the Housekeeping gene […] mRNA levels. Following the kit instructions, lysis buffer was added to the frozen cells and incubated briefly at 55 °C. A volume of 20 μl of BGLAP probeset (Affymetrix SA-10875-01) or 18 S (Affymetrix SA-10026) in blocking buffer was added to the provided capture plates before adding 80 μl of the cell lysate. The plates were sealed and incubated at 55 °C overnight. Following an overnight incubation the capture plates were washed and the probes amplified following kit instructions. The resulting luminescence signal was detected on an Envision (Perkin Elmer). BGLAP signal was normalized using the 18S signal and the resulting data was fit to a 4-parameter logistics to determine EC50.

RXRα = molecular target: T1, RXRα (Homo sapiens, UniProt P19793); assay: Differential HDX-MS of RXRα alone with and without ligand; format: binding; settings: without VDR
T1 construct: Flag; made in house; host or cells: baculovirus system
T1 sequence (P19793 1-462): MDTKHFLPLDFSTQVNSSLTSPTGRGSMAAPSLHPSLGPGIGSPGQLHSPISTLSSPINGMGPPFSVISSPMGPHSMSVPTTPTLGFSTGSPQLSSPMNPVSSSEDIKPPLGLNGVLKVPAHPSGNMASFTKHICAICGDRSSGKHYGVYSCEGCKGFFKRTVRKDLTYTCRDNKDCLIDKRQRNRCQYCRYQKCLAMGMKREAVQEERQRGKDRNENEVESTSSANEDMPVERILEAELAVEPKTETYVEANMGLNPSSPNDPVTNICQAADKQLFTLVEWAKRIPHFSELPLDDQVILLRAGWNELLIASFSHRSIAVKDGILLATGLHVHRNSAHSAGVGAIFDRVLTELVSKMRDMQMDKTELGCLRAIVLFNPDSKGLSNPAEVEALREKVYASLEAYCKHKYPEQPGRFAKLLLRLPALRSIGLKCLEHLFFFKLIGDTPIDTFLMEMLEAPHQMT
Description: Full-length WT His-hVDR (Δ (151–190)) and WT Flag-h RXRα were expressed in a baculovirus system and purified by Ni-NTASEC or Flag-SEC, respectively. His-hSRC1 RID (627–786) variant 1 (NM_003743) was expressed in Escherichia coli (BL21 DE3) and purified using His-Trap (GE Healthcare). The final protein buffer was 50 mM Tris (pH 8.0), 150 mM NaCl, 10% glycerol and 2 mM DTT. The purity of each protein was > 95% and was verified using SDS-PAGE, western blot and MALDI MS.
HDX-MS analysis: 10 μM of the apo protein was mixed with 1:10 molar excess of ligand and incubated for 2 h at 4 °C for complex formation before subjecting them to HDX analysis. […] The intensity weighted mean m/z centroid value of each peptide envelope was calculated and subsequently converted into a percentage of deuterium incorporation. […] In the absence of a fully deuterated control, 100% deuterium incorporation was calculated theoretically, and corrections for back-exchange were made on the basis of an estimated 70% deuterium recovery and accounting for 79.9% final deuterium concentration in the sample (1:5 dilution in D2O HDX buffer). Statistical significance for the differential HDX data is determined by an unpaired t-test for each time point, a procedure that is integrated into the HDX Workbench software. […]

SMILES | EC50 (BGLAP; Homo sapiens) [nM] | Max. Stim., BGLAP activation (BGLAP) [%] | conformational changes of RXRα upon ligand binding (HDX) (RXRα) | EC50 (BGLAP) [nM]
CCC(CC)(c1ccc(OCC(O)C(C)(C)C)c(C)c1)c1ccc(C(=O)N(C)CC(=O)O)c(C)c1 (stereo not shown) [Cmpd1, [(4-{1-ethyl-1-[4-(2-hydroxy-3,3-dimethyl-butoxy)-3-methyl-phenyl]-propyl}-2-methyl-benzoyl)-methyl-amino]-acetic acid] | 1.44 | 94.2 | no detectable conformational changes | 
CCc1cc(C(CC)(CC)c2ccc(OCC(O)C(C)(C)C)c(C)c2)sc1C(=O)N[C@@H](C)C(=O)O (single isomer, unassigned) [Cmpd2, L-2-[(5-{1-Ethyl-1-[4-(2-hydroxy-3,3-dimethyl-butoxy)-3-methyl-phenyl]-propyl}-3-ethyl-thiophene-2-carbonyl)-amino]-propionic acid] | 34.9 | 73 |  | 
CCC(CC)(c1ccc(OCC(O)C(C)(C)C)c(C)c1)c1cc(C)c(C(=O)Nc2nnn[nH]2)s1 (stereo not shown) [Cmpd3, 3'-[4-(2-hydroxy-3,3-dimethylbutoxy)-3-methylphenyl]-3'-[5-(tetrazol-5-yl-aminocarbonyl)-4-methylthiophen-2-yl]pentane] |  | 75.9 |  | 698
